From publication PMC10042540, “Targeting oncogenic KRasG13C with nucleotide-based covalent inhibitors” (eLife, 2023)

Experiments:
[1] = molecular target: KRas; set-up: method as in Jeganathan et al., 2018; details: reversible affinity; ref Jeganathan et al., 2018; cited from earlier work
[2] = tested on: SOS; test: Guanine nucleotide-exchange factor assay (mantdGDP fluorescence); format: biochemical
Description: SOS-catalysed nucleotide exchange was monitored at 25 °C in a FluoroMax-3 spectrofluorometer (excitation at 360 nm, emission at 440 nm) in 20 mM HEPES (pH 7.5), 100 mM NaCl, 2 mM MgCl2, and 1 mM TCEP. 5 µM KRas1-169 was mixed with 10 µM mantdGDP and subsequently with different concentrations of SOS (0.25 µM and 0.5 µM) (Figure 3A; Figure 3—figure supplement 1).

[3] = tested on: Ras pathway (pcRaf, pAkt, pErk, pS6); test: Electroporation into HeLa cells, western blot of downstream signalling; format: cell-based, human; details: electroporation of 50-300 µg protein
Description: (§1) HeLa cells were obtained from the American Type Culture Collection (ATCC) and were cultured in DMEM medium (Gibco) supplemented with 10% fetal bovine serum (FBS) (PAN-Biotech) and 1% penicillin/streptomycin (Gibco). Cells were cultured in a humidified incubator at 37 °C in the presence of 5% CO2. The identity of the cells was validated by STR profiling and the cells were tested negative for mycoplasma contamination.
(§2) Electroporation of full-length KRas constructs (KRasWT, KRasG13C, KRasG13C-edaGDP, KRasG13C:acetyledaGDP and KRasG13C-edaGppCp) was performed based on the protocol described by [Alex et al., 2019] using the Neon Transfection System Kit (Thermo Fisher). For electroporation, 3 million cells per experiment were harvested by trypsinization, washed with PBS, and resuspended in 85 µL of the electroporation buffer R (Thermo Fisher). Increasing amounts of recombinant protein samples for each construct (0, 50, 100, 200 and 300 µg) were diluted 1:1 in buffer R followed by the addition of 30 µL of this protein master mix to the cell suspension. This cellular slurry was loaded into a […] Neon Pipette Tip (Thermo Fisher) and electroporated with 2x35 ms pulses at 1000 V. After electroporation, the cells were washed twice with PBS (15 mL) to remove non-internalized extracellular protein and the cell pellet was resuspended in 2 mL complete growth media. Cells were transferred into six-well tissue culture plates (Sarstedt) and incubated for 24 hr at 37 °C and 5% CO2 in a humidified incubator for recovery before being processed for western blotting analysis.
After recovery of the electroporation, cells were washed twice with ice-cold PBS and lysed in 100 µL of phosphatase and protease inhibitor containing RIPA buffer (Cell Signaling Technology). Cells were incubated on ice for 30 min and then harvested by scraping followed by centrifugation at 14,000 rpm for 10 min at 4 °C. Protein concentrations were determined using the Pierce BCA protein assay (Thermo) following the manufacturer’s recommended procedure. Equal amounts of protein (10 µg) were analyzed by SDS-PAGE and transferred to Immobilon-FL PVDF membranes (Merck Millipore) using Pierce 1-step transfer buffer (Thermo) and the Pierce Power Blotter (Thermo). Membranes were washed with ddH2O for 5 min, blocked with OdysseyBlocking Buffer TBS (Li-Cor) for 1 hr at room temperature and then incubated with primary antibodies diluted in OdysseyBlocking Buffer TBS overnight at 4 °C with gentle agitation. […] Quantification of protein levels from western blots was performed using Empiria Studio (Li-Cor) (Figure 3B, C, Figure 3—figure supplements 6–9).

[4] = tested on: pAktS473; test: Electroporation into HeLa cells, western blot quantification; format: cell-based, human; details: for pAkt mean fold change: mean of cell lysates
Description: as §1, §2
(§3) After recovery of the electroporation, cells were washed twice with ice-cold PBS and lysed in 100 µL of phosphatase and protease inhibitor containing RIPA buffer (Cell Signaling Technology). Cells were incubated on ice for 30 min and then harvested by scraping followed by centrifugation at 14,000 rpm for 10 min at 4 °C. Protein concentrations were determined using the Pierce BCA protein assay (Thermo) following the manufacturer’s recommended procedure. Equal amounts of protein (10 µg) were analyzed by SDS-PAGE and transferred to Immobilon-FL PVDF membranes (Merck Millipore) using Pierce 1-step transfer buffer (Thermo) and the Pierce Power Blotter (Thermo). Membranes were washed with ddH2O for 5 min, blocked with OdysseyBlocking Buffer TBS (Li-Cor) for 1 hr at room temperature and then incubated with primary antibodies diluted in OdysseyBlocking Buffer TBS overnight at 4 °C with gentle agitation. KRas (Sigma Aldrich, SAB1404011-100UG), pcRafS338 (CST, 9427), tAkt1 (CST, 2938), pAktS473 (CST, 4060), tErk (CST, 4696), pErkT202/Y204 (CST, 4370), pS6S235/236 (CST, 4858), and β-actin (CST, 4970/Sigma-Aldrich, A5441) antibodies were used to detect the individual proteins. After primary antibody incubation, membranes were washed three times with TBS-T (50 mM Tris, 150 mM NaCl, 0.05% Tween 20, pH 7.4) for 5 min before being incubated with secondary antibodies (anti-mouse IgG (H+L) (DyLight 680 Conjugate) (CST, 5470) / anti-rabbit IgG (H+L) (DyLight 800 4 X PEG Conjugate) (CST, 5151)) diluted in OdysseyBlocking Buffer TBS for 1 hr at room temperature with gentle agitation. After secondary antibody incubation, the membranes were washed three times for 5 min with TBS-T and then scanned using an OdysseyCLx imaging system (Li-Cor). Quantification of protein levels from western blots was performed using Empiria Studio (Li-Cor) (Figure 3B, C, Figure 3—figure supplements 6–9).

[5] = tested on: pErkT202/Y204; test: as above; format: cell-based, human; details: for pErk mean fold change: mean of cell lysates
Description: as §1, §2, §3

[6] = tested on: pS6S235/236; test: as above; format: cell-based, human; details: for pS6 mean fold change: mean of cell lysates
Description: as §1, §2, §3

[7] = tested on: pcRafS338; test: as above; format: cell-based, human; details: for pcRaf mean fold change: mean of cell lysates
Description: as §1, §2, §3

[8] = tested on: tAkt1; test: as above; format: cell-based, human; details: for tAkt mean fold change: mean of cell lysates
Description: as §1, §2, §3

[9] = tested on: tErk; test: as above; format: cell-based, human; details: for tErk mean fold change: mean of cell lysates
Description: as §1, §2, §3

## Nc1nc2c(ncn2[C@@H]2O[C@H](COP(=O)(O)OP(=O)(O)OCCNC(=O)CCl)[C@@H](O)[C@H]2O)c(=O)[nH]1 [SML-8-73-1]
[1]
  Kd: ~140 nM

## KRasG13C: recombinant oncogenic KRasG13C mutant protein, GDP-bound
[2]; 5 µM KRas1-169, 10 µM mantdGDP, 0.25 or 0.5 µM SOS
  SOS-catalysed nucleotide exchange: efficiently catalysed nucleotide exchange
[2]; absence of SOS
  intrinsic nucleotide exchange rate: drastically increased
[3]
  downstream signalling (pcRaf, pAkt, pErk, pS6): concentration-dependent activation of the downstream signalling
[4]; 50 µg, Cell lysate 1
  pAkt fold change: 1.68
[4]; 50 µg, Cell lysate 2
  pAkt fold change: 1.22
[4]; 50 µg, Cell lysate 3
  pAkt fold change: 2.21
[4]; 50 µg
  pAkt mean fold change: 1.70
[4]; 100 µg, Cell lysate 1
  pAkt fold change: 3.58
[4]; 100 µg, Cell lysate 2
  pAkt fold change: 2.56
[4]; 100 µg, Cell lysate 3
  pAkt fold change: 1.82
[4]; 100 µg
  pAkt mean fold change: 2.65
[4]; 200 µg, Cell lysate 1
  pAkt fold change: 4.98
[4]; 200 µg, Cell lysate 2
  pAkt fold change: 2.01
[4]; 200 µg, Cell lysate 3
  pAkt fold change: 1.89
[4]; 200 µg
  pAkt mean fold change: 2.96
[4]; 300 µg, Cell lysate 1
  pAkt fold change: 4.64
[4]; 300 µg, Cell lysate 2
  pAkt fold change: 3.64
[4]; 300 µg, Cell lysate 3
  pAkt fold change: 1.72
[4]; 300 µg
  pAkt mean fold change: 3.33
[5]; 50 µg, Cell lysate 1
  pErk fold change: 5.54
[5]; 50 µg, Cell lysate 2
  pErk fold change: 1.80
[5]; 50 µg, Cell lysate 3
  pErk fold change: 3.53
[5]; 50 µg
  pErk mean fold change: 3.62
[5]; 100 µg, Cell lysate 1
  pErk fold change: 6.18
[5]; 100 µg, Cell lysate 2
  pErk fold change: 2.89
[5]; 100 µg, Cell lysate 3
  pErk fold change: 3.58
[5]; 100 µg
  pErk mean fold change: 4.22
[5]; 200 µg, Cell lysate 1
  pErk fold change: 6.87
[5]; 200 µg, Cell lysate 2
  pErk fold change: 3.48
[5]; 200 µg, Cell lysate 3
  pErk fold change: 4.30
[5]; 200 µg
  pErk mean fold change: 4.88
[5]; 300 µg, Cell lysate 1
  pErk fold change: 9.07
[5]; 300 µg, Cell lysate 2
  pErk fold change: 4.08
[5]; 300 µg, Cell lysate 3
  pErk fold change: 5.76
[5]; 300 µg
  pErk mean fold change: 6.30
[6]; 50 µg, Cell lysate 1
  pS6 fold change: 1.14
[6]; 50 µg, Cell lysate 2
  pS6 fold change: 1.57
[6]; 50 µg, Cell lysate 3
  pS6 fold change: 1.40
[6]; 50 µg
  pS6 mean fold change: 1.37
[6]; 100 µg, Cell lysate 1
  pS6 fold change: 0.95
[6]; 100 µg, Cell lysate 2
  pS6 fold change: 1.80
[6]; 100 µg, Cell lysate 3
  pS6 fold change: 1.21
[6]; 100 µg
  pS6 mean fold change: 1.32
[6]; 200 µg, Cell lysate 1
  pS6 fold change: 1.17
[6]; 200 µg, Cell lysate 2
  pS6 fold change: 2.22
[6]; 200 µg, Cell lysate 3
  pS6 fold change: 1.06
[6]; 200 µg
  pS6 mean fold change: 1.48
[6]; 300 µg, Cell lysate 1
  pS6 fold change: 1.44
[6]; 300 µg, Cell lysate 2
  pS6 fold change: 2.42
[6]; 300 µg, Cell lysate 3
  pS6 fold change: 1.24
[6]; 300 µg
  pS6 mean fold change: 1.70
[7]; 50 µg, Cell lysate 1
  pcRaf fold change: 1.43
[7]; 50 µg, Cell lysate 2
  pcRaf fold change: 2.59
[7]; 50 µg, Cell lysate 3
  pcRaf fold change: 1.91
[7]; 50 µg
  pcRaf mean fold change: 1.98
[7]; 100 µg, Cell lysate 1
  pcRaf fold change: 1.55
[7]; 100 µg, Cell lysate 2
  pcRaf fold change: 4.23
[7]; 100 µg, Cell lysate 3
  pcRaf fold change: 1.55
[7]; 100 µg
  pcRaf mean fold change: 2.44
[7]; 200 µg, Cell lysate 1
  pcRaf fold change: 1.46
[7]; 200 µg, Cell lysate 2
  pcRaf fold change: 6.14
[7]; 200 µg, Cell lysate 3
  pcRaf fold change: 1.74
[7]; 200 µg
  pcRaf mean fold change: 3.11
[7]; 300 µg, Cell lysate 1
  pcRaf fold change: 1.29
[7]; 300 µg, Cell lysate 2
  pcRaf fold change: 6.29
[7]; 300 µg, Cell lysate 3
  pcRaf fold change: 1.50
[7]; 300 µg
  pcRaf mean fold change: 3.03
[8]; 50 µg, Cell lysate 1
  tAkt fold change: 1.94
[8]; 50 µg, Cell lysate 2
  tAkt fold change: 0.93
[8]; 50 µg, Cell lysate 3
  tAkt fold change: 1.69
[8]; 50 µg
  tAkt mean fold change: 1.52
[8]; 100 µg, Cell lysate 1
  tAkt fold change: 2.66
[8]; 100 µg, Cell lysate 2
  tAkt fold change: 0.74
[8]; 100 µg, Cell lysate 3
  tAkt fold change: 1.08
[8]; 100 µg
  tAkt mean fold change: 1.49
[8]; 200 µg, Cell lysate 1
  tAkt fold change: 2.05
[8]; 200 µg, Cell lysate 2
  tAkt fold change: 1.29
[8]; 200 µg, Cell lysate 3
  tAkt fold change: 1.44
[8]; 200 µg
  tAkt mean fold change: 1.59
[8]; 300 µg, Cell lysate 1
  tAkt fold change: 1.78
[8]; 300 µg, Cell lysate 2
  tAkt fold change: 1.44
[8]; 300 µg, Cell lysate 3
  tAkt fold change: 1.65
[8]; 300 µg
  tAkt mean fold change: 1.62
[9]; 50 µg, Cell lysate 1
  tErk fold change: 0.88
[9]; 50 µg, Cell lysate 2
  tErk fold change: 1.05
[9]; 50 µg, Cell lysate 3
  tErk fold change: 0.99
[9]; 50 µg
  tErk mean fold change: 0.97
[9]; 100 µg, Cell lysate 1
  tErk fold change: 0.44
[9]; 100 µg, Cell lysate 2
  tErk fold change: 1.04
[9]; 100 µg, Cell lysate 3
  tErk fold change: 1.00
[9]; 100 µg
  tErk mean fold change: 0.83
[9]; 200 µg, Cell lysate 1
  tErk fold change: 0.50
[9]; 200 µg, Cell lysate 2
  tErk fold change: 1.05
[9]; 200 µg, Cell lysate 3
  tErk fold change: 0.89
[9]; 200 µg
  tErk mean fold change: 0.81
[9]; 300 µg, Cell lysate 1
  tErk fold change: 0.97
[9]; 300 µg, Cell lysate 2
  tErk fold change: 1.08
[9]; 300 µg, Cell lysate 3
  tErk fold change: 0.89
[9]; 300 µg
  tErk mean fold change: 0.98
